Results on eleven compounds are retold here after US7855294B2, “Cycloalkanopyridine derivative” (Banyu Pharmaceutical Co., Ltd., priority 2004, dated 2010).

Where a name gives a salt, the structure may show the parent alone.

Data set [1] addresses T1, nociceptin receptor ORL1 (Homo sapiens, UniProt P41146). Description: Antagonism against nociceptin-elicited G protein activation (GTPγ[35S] binding, CHO/ORL1 membrane). Type of data set: biochemical. On the set-up: expressed in transfected cells; membrane preparation. On the procedure: CHO cells which stably expressed a nociceptin receptor ORL1 were used to investigate the action of each test compound against nociceptin-elicited G protein activation. A membrane prepared from the CHO/ORL1 cells, 50 nM nociceptin, 200 pM GTPγ[^35S] (by NEN), 1.5 mg of wheat germ agglutinin SPA beads (by Amersham Pharmacia) and each test compound were mixed in a GDP buffer (20 mM Hepes, 100 mM sodium chloride, 10 mM magnesium chloride, 1 mM EDTA, 5 μM GDP, pH 7.4) and incubated at 25° C. for 150 minutes, and then the radioactivity of the culture was determined.

Data set [2] has as its target T1, nociceptin receptor ORL1. Nature of the data set: Nociceptin receptor binding inhibition assay ([125I]Tyr14-Nociceptin, CHO/ORL1 membrane fractions, SPA beads). More on the design: expressed in transfected cells; membrane fractions. The procedure: A cDNA that codes for a human nociceptin receptor gene was cloned into an expression vector pCR3 (by Invitrogen) to prepare pCR3/ORL1. Next, pCR3/ORL1 was transfected in CHO cells using a transfectam (by Nippongene) to obtain a stable expression strain (CHO/ORL1 cells) having resistance against 1 mg/ml G418. Membrane fractions were prepared from this stable expression strain to carry out a receptor binding assay. 11 μg of the membrane fraction, 50 pM [^125I]Tyr^14-Nociceptin (by Amersham Pharmacia), 1 mg of wheat germ agglutinin SPA beads (PVT based, by Amersham Pharmacia) and each test compound were suspended in an NC buffer (50 mM Hepes, 10 mM sodium chloride, 1 mM magnesium chloride, 2.5 mM calcium chloride, 0.1% BSA, 0.025% bacitracin, pH 7.4) and incubated at 37° C. for 60 minutes, and then the radioactivity of the culture was determined.

The next data set deals with male ICR (CD-1) mice. Nature of the data set: Antagonism test: hypokinesis (suppression of motion) induced by a nociceptin agonist. Type of data set: in vivo. The following applies: test compound 1 to 10 mg/kg and nociceptin agonist 1 mg/kg hypodermically; motion for 60 minutes; difference between agonist group and solvent control group set to 100%. The procedure:
Using male ICR (CD-1) mice (weighing 20 to 40 g), antagonism to hypokinesis (suppression of motion) induced by a nociceptin agonist was observed. That is, the quantity of motion of each mouse in a 20 cm×30 cm×20 cm cage was measured with an infrared sensor. The test compound (1 to 10 mg/kg) as dissolved in either 0.5% methyl cellulose liquid or a solvent, and a nociceptin agonist (1 mg/kg) were administered to the test mice hypodermically, and the quantity of their motion for 60 minutes was measured. To the control group mice, the solvent only was administered. The evaluation was made by representing the quantity of motion of the mice administered with the test compound by percent, where the difference in the quantity of motion between the nociceptin agonist-administered group and that of the solvent-administered control group during the test time was set to be 100%.

T1 sequence (P41146 whole entry): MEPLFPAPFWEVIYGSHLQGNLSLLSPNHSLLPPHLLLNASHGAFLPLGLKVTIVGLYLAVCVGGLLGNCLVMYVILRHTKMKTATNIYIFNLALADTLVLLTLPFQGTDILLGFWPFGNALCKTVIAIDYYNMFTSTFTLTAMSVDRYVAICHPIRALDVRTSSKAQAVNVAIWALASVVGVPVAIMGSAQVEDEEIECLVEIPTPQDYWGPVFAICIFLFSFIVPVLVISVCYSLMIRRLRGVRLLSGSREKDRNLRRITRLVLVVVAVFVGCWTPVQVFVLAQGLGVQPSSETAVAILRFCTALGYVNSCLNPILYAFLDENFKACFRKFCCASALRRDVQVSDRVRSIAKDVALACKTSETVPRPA

As to `CC1(C)OC2(CCN(C[C@@H]3Cc4cccnc4[C@@H](O)C3)CC2)c2ccccc21.O=C(O)C(O)C(O)C(=O)O` [Example 25, (6R,8S)-6-(3,3-dimethyl-spiro[isobenzofuran-1(3H),4′-piperidin]-1′-ylmethyl)-5,6,7,8-tetrahydro-quinolin-8-ol mono-L-tartrate], the figures for the half-maximal inhibitory concentration (IC50) at nociceptin receptor ORL1 [1] and on nociceptin receptor ORL1 [2] were 4.2 nM and 2.5 nM, respectively. For the same compound, in the data set on male ICR (CD-1) mice, the “Quantity of Motion (%)” value is given as greater than 75%.
`O=C(O)C(O)C(O)C(=O)O.O[C@H]1C[C@H](CN2CCC(F)(c3ccccc3Cl)CC2)Cc2cccnc21` [Example 29, (6R,8S)-6-[4-(2-chlorophenyl)-4-fluoropiperidin-1-ylmethyl]-5,6,7,8-tetrahydroquinolin-8-ol mono-L-tartrate]: the IC50 amounted to 4.7 nM at nociceptin receptor ORL1 [1] and 4.1 nM on nociceptin receptor ORL1 [2] (read-out: IC50 value). In the data set with male ICR (CD-1) mice, the “Quantity of Motion (%)” value was greater than 75%.
In the case of `O[C@H]1C[C@H](CN2C3CCC2CC2(C3)OCc3ccccc32)CCc2cccnc21` (stereo partly drawn) [Example 10, (7R,9S)-7-(spiro[8-aza-bicyclo[3.2.1]octa-3,1′(3′H)-isobenzofuran]-8-ylmethyl)-6,7,8,9-tetrahydro-5H-cyclohepta[b]pyridin-9-ol], the IC50 at nociceptin receptor ORL1 [1] was found to be 0.08 nM; at nociceptin receptor ORL1 [2], 0.37 nM.
Consider `Cl.O[C@@H]1[C@@H](c2ccc(F)cc2Cl)CC2CC[C@@H]1N2C[C@@H]1Cc2cccnc2[C@@H](O)C1` (relative stereo) [Example 71, (6R,8S)-6-[(1S*,2R*,3R*)-3-(2-chloro-4-fluorophenyl)-2-hydroxy-8-azabicyclo[3.2.1]octan-8-ylmethyl]-5,6,7,8-tetrahydroquinolin-8-ol monohydrochloride], for which the melting point was 238 °C (dec.). The concentration for half-maximal inhibition (IC50) at nociceptin receptor ORL1 [1] was 0.68 nM. The compound further yielded a 50% inhibitory concentration (IC50) on nociceptin receptor ORL1 [2] of 1.4 nM.
`Cl.O[C@H]1C[C@H](CN2CC[C@H](c3ccccc3Cl)[C@@H](O)C2)CCc2cccnc21` (relative stereo) [Example 31, (7R,9S)-7-[(3R*,4R*)-4-(2-chlorophenyl)-3-hydroxypiperidin-1-ylmethyl]-6,7,8,9-tetrahydro-5H-cyclohepta[b]pyridin-9-ol monohydrochloride]: the IC50 came out at 2.1 nM on nociceptin receptor ORL1 [1] and 6.7 nM on nociceptin receptor ORL1 [2] (read-out: IC50 value). Besides, the “Quantity of Motion (%)” value in the data set on male ICR (CD-1) mice is given as greater than 75%.
`O[C@H]1C[C@H](CN2C3CCC2CC2(C3)OCc3cc(F)ncc32)CCc2cccnc21` (stereo partly drawn) (as salt: tartrate) [Example 23, (7R,9S)-7-(6′-aza-5′-fluoro-spiro[8-aza-bicyclo[3.2.1]-octa-3,1′(3′H)-isobenzofuran]-8-ylmethyl)-6,7,8,9-tetrahydro-5H-cyclohepta[b]pyridin-9-ol mono-L-tartrate] came in with a melting point of 133 to 141 °C.
With `CC1(C)OC2(CC3CCC(C2)N3C[C@@H]2Cc3cccnc3[C@@H](O)C2)c2cnc(F)cc21` (stereo partly drawn) [Example 70, (6R,8S)-6-[(5′-fluoro-3′,3′-dimethyl-3′H-6′-azaspiro[8-azabicyclo[3.2.1]octane-3,1′-isobenzofuran]-8-yl)methyl]-5,6,7,8-tetrahydroquinolin-8-ol mono-L-tartrate], the half-inhibitory concentration (IC50) at nociceptin receptor ORL1 [1] is 0.32 nM; at nociceptin receptor ORL1 [2], 0.39 nM.
Turning to `Cl.O[C@H]1C[C@H](CN2CC[C@H](c3ccc(F)cc3Cl)[C@@H](O)C2)Cc2cccnc21` [Example 33, (6R,8S)-6-[(3R,4R)-4-(2-chloro-4-fluorophenyl)-3-hydroxypiperidin-1-ylmethyl]-5,6,7,8-tetrahydroquinolin-8-ol monohydrochloride], the “Quantity of Motion (%)” value in the data set with male ICR (CD-1) mice is on record as greater than 75%.
Consider `O[C@H]1C[C@H](CN2C3CCC2CC2(C3)OCc3cc(F)ncc32)CCc2cccnc21` (stereo partly drawn) [Example 23, (7R,9S)-7-(6′-aza-5′-fluoro-spiro[8-aza-bicyclo[3.2.1]-octa-3,1′(3′H)-isobenzofuran]-8-ylmethyl)-6,7,8,9-tetrahydro-5H-cyclohepta[b]pyridin-9-ol mono-L-tartrate], for which the IC50 on nociceptin receptor ORL1 [1] was found to be 1.2 nM; on nociceptin receptor ORL1 [2], 0.53 nM.
In the case of `Cc1cc(F)ccc1[C@H]1CCN(C[C@@H]2CCc3cccnc3[C@@H](O)C2)C[C@@H]1O` (single isomer, unassigned) [Example 17, (7R,9S)-7-[(3R*,4R*)-(4-fluoro-o-tolyl)-3-hydroxypiperidin-1-ylmethyl]-6,7,8,9-tetrahydro-5H-cyclohepta[b]pyridin-9-ol monohydrochloride], in the data set on male ICR (CD-1) mice, the “Quantity of Motion (%)” value was greater than 75%.
Turning to `Cc1ccccc1[C@H]1CCN(C[C@@H]2CCc3cccnc3[C@@H](O)C2)C[C@@H]1O.O=C(O)C(O)C(O)C(=O)O` (relative stereo) [Example 16, (7R,9S)-7-[(3R*,4R*)-3-hydroxy-4-o-tolyl-piperidin-1-ylmethyl]-6,7,8,9-tetrahydro-5H-cyclohepta[b]pyridin-9-ol mono-L-tartrate], the “Quantity of Motion (%)” value in the data set with male ICR (CD-1) mice is greater than 75%.

One may read the IC50 as the concentration that gives 50% inhibition. The melting point is the temperature, or range, at which the solid turns liquid.
